Measurements published in publication PMC3044726, “Identification of Human IKK-2 Inhibitors of Natural Origin (Part I): Modeling of the IKK-2 Kinase Domain, Virtual Screening and Activity Assays” (PLoS ONE, 2011).
pIC50: −log10 of the molar value. Like-named read-outs stand apart in the source and are kept apart here.

Biological target: T1, hIKK-2 (Homo sapiens, UniProt O14920)
T1 construct: gene IKBKB
T1 sequence (O14920 1-756): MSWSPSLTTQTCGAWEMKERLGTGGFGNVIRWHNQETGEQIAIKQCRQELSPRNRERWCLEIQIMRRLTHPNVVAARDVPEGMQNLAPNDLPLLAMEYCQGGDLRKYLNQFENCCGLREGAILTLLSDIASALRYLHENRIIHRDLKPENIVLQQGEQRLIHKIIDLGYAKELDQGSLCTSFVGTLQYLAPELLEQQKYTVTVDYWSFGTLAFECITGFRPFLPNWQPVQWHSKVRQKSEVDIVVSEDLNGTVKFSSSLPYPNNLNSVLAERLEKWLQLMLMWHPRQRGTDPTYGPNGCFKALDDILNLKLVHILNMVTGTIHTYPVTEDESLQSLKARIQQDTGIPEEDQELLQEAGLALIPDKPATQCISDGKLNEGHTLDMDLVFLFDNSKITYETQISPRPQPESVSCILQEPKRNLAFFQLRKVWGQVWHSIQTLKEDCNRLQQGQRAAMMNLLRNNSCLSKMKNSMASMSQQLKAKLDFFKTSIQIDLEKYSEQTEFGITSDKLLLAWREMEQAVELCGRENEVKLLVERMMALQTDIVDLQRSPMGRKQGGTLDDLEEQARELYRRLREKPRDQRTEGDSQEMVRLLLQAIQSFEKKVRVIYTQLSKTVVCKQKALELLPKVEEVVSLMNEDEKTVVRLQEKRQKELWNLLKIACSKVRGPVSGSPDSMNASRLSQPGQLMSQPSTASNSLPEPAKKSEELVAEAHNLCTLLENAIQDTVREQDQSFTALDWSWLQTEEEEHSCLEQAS
Assay: K-LISA IKKβ ELISA kinase assay with GST-IκBα substrate
Type: biochemical

SMILES | pIC50 | pIC50 (read-out: IC50)
COCc1c(CN)cnc(C)c1N [ZINC03683886] | 2.68 | 
CCOc1ccc2nc3cc(N)ccc3c(N)c2c1 [ZINC03871389, ethacridine] |  | 3.74
OC[C@@H]1CCCN2CCCC[C@H]12 [ZINC01669260, lupinine] |  | 2.48
